# Read-outs that look alike come from different tables or passages of the source.
# T1: WT (Agrobacterium tumefaciens, UniProt P39669)
# T1 construct: gene glgC; His-tagged, from pBLH1/pBHL1 (pET28c derivative), expressed in E. coli BL21(DE3); homotetramer
# T1 sequence (P39669 1-420): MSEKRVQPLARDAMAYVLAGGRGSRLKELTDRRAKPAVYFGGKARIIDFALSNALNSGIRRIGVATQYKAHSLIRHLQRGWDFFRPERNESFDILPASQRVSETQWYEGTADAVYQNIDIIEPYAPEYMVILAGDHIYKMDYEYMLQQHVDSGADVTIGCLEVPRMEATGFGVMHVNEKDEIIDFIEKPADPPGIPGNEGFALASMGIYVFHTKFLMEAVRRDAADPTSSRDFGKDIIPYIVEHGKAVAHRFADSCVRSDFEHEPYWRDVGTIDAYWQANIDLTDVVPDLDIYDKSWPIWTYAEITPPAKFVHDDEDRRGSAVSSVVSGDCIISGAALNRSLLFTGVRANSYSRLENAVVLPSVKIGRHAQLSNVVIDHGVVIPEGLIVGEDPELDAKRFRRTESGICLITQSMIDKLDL
# Experiments:
# [1] = biological target: T2, R11D/D141R (Agrobacterium tumefaciens, UniProt P39669, D141R/R11D); experiment: Activator saturation of ADP-Glc synthesis (PPi converted to phosphate, Malachite Green) in 50 mM HEPES pH 7.5, 7 mM MgCl2, 1.5 mM Glc1P, 1.5 mM ATP; modified Hill fit.; assay type: biochemical; settings: n = 2; read-out: A0.5
# T2 construct: gene glgC; His-tagged, from pBLH1/pBHL1 derivative, expressed in E. coli BL21(DE3); homotetramer
# Experimental: (§1) This condition was considered “saturating concentrations” of substrate. To analyze the effect of the activators in “sub‐saturating concentrations” of substrate, the concentration of ATP was 0.2 mM.
# (§2) Table S1 . Kinetic parameters for the activators of the A. tumefaciens ADP -Glc PPase wild type, and mutants.
# (§3) a Assays were performed as described in Materials and Methods under “activator saturation assay”.
# (§4) b Activation fold is calculated by dividing the maximum velocity (Vm) by the velocity in the absence of activator (V0).
# [2] = biological target: T1, WT; experiment: as above; assay type: biochemical; settings: n = 2; read-out: A0.5
# Experimental: as §1, §2, §3, §4
# [3] = biological target: T3, D141E (Agrobacterium tumefaciens, UniProt P39669, D141E); experiment: as above; assay type: biochemical; settings: n = 2
# T3 construct: gene glgC; His-tagged, from pBLH1/pBHL1 derivative, expressed in E. coli BL21(DE3); homotetramer
# Experimental: as §1, §2, §3, §4
# [4] = biological target: T4, D141A (Agrobacterium tumefaciens, UniProt P39669, D141A); experiment: as above; assay type: biochemical; settings: n = 2; read-out: A0.5
# T4 construct: gene glgC; His-tagged, from pBLH1/pBHL1 derivative, expressed in E. coli BL21(DE3); homotetramer
# Experimental: as §1, §2, §3, §4
# [5] = biological target: T5, D141N (Agrobacterium tumefaciens, UniProt P39669, D141N); experiment: as above; assay type: biochemical; settings: n = 2; read-out: A0.5
# T5 construct: gene glgC; His-tagged, from pBLH1/pBHL1 derivative, expressed in E. coli BL21(DE3); homotetramer
# Experimental: as §1, §2, §3, §4
# [6] = biological target: T6, R11K (Agrobacterium tumefaciens, UniProt P39669, R11K); experiment: as above; assay type: biochemical; settings: n = 2
# T6 construct: gene glgC; His-tagged, from pBLH1/pBHL1 derivative, expressed in E. coli BL21(DE3); homotetramer
# Experimental: as §1, §2, §3, §4
# [7] = biological target: T1, WT; experiment: Thermal shift assay (SYPRO Orange) with varied ligand concentration in 50 mM HEPES pH 8.0, 0.02 mg/mL protein, 25-95 C; Tm versus log ligand concentration fitted to obtain Kd.; assay type: binding; settings: n = 3
# Experimental: (§5) We used thermal shift assays to find whether the effect of the mutation was on the ability of Fru6P/Pyr either to bind or activate the enzyme. Activators of ADP‐Glc PPase bind to the enzyme and stabilize it from thermal denaturation (Bhayani & Ballicora, [2022]).
# (§6) Thermal shift assays were performed as described (Hill et al., [2019]) using the QuantStudio™ 3 Real‐Time PCR System (Thermo Fisher Scientific) and QuantStudio™ Design and Analysis Software v1.5.1. The final volume for the assay was 20 μL and contained 50 mM HEPES (pH 8.0), SYPRO Orange Dye (Sigma‐Aldrich) (4×) and 0.02 mg/mL purified protein, in the absence or presence of 5 mM Fru6P, and 5 mM Pyr. A control with no protein was also performed for all the samples. A continuous temperature increases from 25.0 to 95.0°C was scanned at a ramp increment of 0.1°C per second. Scans were run in triplicates and averaged. The unfolding temperatures (T m ) of the proteins were measured using the minimum of the third derivative of the scanned fluorescence vs. temperature (d^3F/dT^3) (Bhayani & Ballicora, [2022]).
# (§7) Thermal Shift assays were used to study the relationship between the melting temperature ( Tm ) of a protein and the logarithm of the ligand concentration using the following equation (Bhayani & Ballicora, [2022]). y=Tm0+Alog101+10^x/Kd.
# (§8) In this equation, y is Tm , and x is the logarithm of the ligand concentration. […] The data was fitted to an equation using Origin™ 2017 and the Levenberg–Marquardt algorithm, to find the optimum parameters Tm0 , A , and Kd (Bhayani & Ballicora, [2022]). To ensure robustness and reliability, all thermal shift assays were conducted in triplicate.
# [8] = biological target: T7, R11D (Agrobacterium tumefaciens, UniProt P39669, R11D); experiment: as above; assay type: binding; settings: n = 3
# T7 construct: gene glgC; His-tagged, from pBLH1/pBHL1 derivative, expressed in E. coli BL21(DE3); homotetramer
# Experimental: as §5, §6, §7, §8
# [9] = biological target: T4, D141A; experiment: Activator saturation of ADP-Glc synthesis (Malachite Green) at pH 7.5 with 1.5 mM Glc1P and 4 mM ATP; modified Hill fit.; assay type: biochemical; settings: n = 2; read-out: A0.5
# Experimental: as §1
# (§9) The assays were performed as described in Materials and Methods in the presence of 4 mM ATP.
# (§10) (1 picture or pasted object on this page, not shown here)
# [10] = system: T8, R11A; experiment: Activator saturation of ADP-Glc synthesis (PPi converted to phosphate, Malachite Green) in 50 mM HEPES pH 7.5, 7 mM MgCl2, 1.5 mM Glc1P, 1.5 mM ATP; modified Hill fit.; assay type: biochemical; design: method as in values quoted from other papers; settings: n = 2; read-out: A0.5; cited from earlier work
# T8 construct: values from literature (Gomez-Casati et al., 2001)
# Experimental: as §1, §2, §3, §4
# [11] = biological target: T5, D141N; experiment: Effector saturation of ADP-Glc synthesis (Malachite Green) at pH 7.5 with 1.5 mM Glc1P and 4 mM ATP, effector inhibiting instead of activating; modified Hill fit.; assay type: biochemical; settings: n = 2; read-out: A0.5 (mM), footnote: I0.5
# Experimental: as §1, §9, §10
# [12] = biological target: Agrobacterium tumefaciens ADP-glucose pyrophosphorylase double mutant R11D/D141R (Agrobacterium tumefaciens) (UniProt P39669); experiment: SEC
# [13] = biological target: Agrobacterium tumefaciens ADP-glucose pyrophosphorylase mutant D141A (Agrobacterium tumefaciens) (UniProt P39669); experiment: SEC
# [14] = biological target: Agrobacterium tumefaciens ADP-glucose pyrophosphorylase mutant D141E (Agrobacterium tumefaciens) (UniProt P39669); experiment: SEC
# [15] = biological target: Agrobacterium tumefaciens ADP-glucose pyrophosphorylase mutant D141N (Agrobacterium tumefaciens) (UniProt P39669); experiment: SEC
# [16] = biological target: Agrobacterium tumefaciens ADP-glucose pyrophosphorylase mutant D141R (Agrobacterium tumefaciens) (UniProt P39669); experiment: SEC
# [17] = biological target: Agrobacterium tumefaciens ADP-glucose pyrophosphorylase mutant R11D (Agrobacterium tumefaciens) (UniProt P39669); experiment: SEC
# [18] = biological target: Agrobacterium tumefaciens ADP-glucose pyrophosphorylase mutant R11K (Agrobacterium tumefaciens) (UniProt P39669); experiment: SEC
# [19] = biological target: the molecule itself; experiment: SEC
molecule,measurement,setting,value
"O=P(O)(O)OC[C@H]1OC(O)(CO)[C@@H](O)[C@@H]1O (some centres unmarked) [Fru6P, fructose 6-phosphate]",EC50,[1],1320 µM
same,EC50,[2],340 µM
same,EC50,[3]; read-out: A0.5,30 µM
same,EC50,[4],840 µM
same,EC50,[5],2970 µM
same,EC50,[6],50 µM
same,Kd,[7],1510 µM
same,Kd,[8],1820 µM
same,EC50,[9],500 µM
same,EC50,[10],30 µM
"CC(=O)C(=O)O [Pyr, pyruvate]",EC50,[2],450 µM
same,EC50,[3],60 µM
same,EC50,[4],300 µM
same,EC50,[6],40 µM
same,IC50,[11],0.075 mM
same,Kd,[7],233 µM
same,Kd,[8],54 µM
same,EC50,[9],49 µM
Agrobacterium tumefaciens ADP-glucose pyrophosphorylase double mutant R11D/D141R (from UniProt P39669) (enzyme),stoichiometry N,[12],4
Agrobacterium tumefaciens ADP-glucose pyrophosphorylase mutant D141A (from UniProt P39669) (enzyme),stoichiometry N,[13],4
Agrobacterium tumefaciens ADP-glucose pyrophosphorylase mutant D141E (from UniProt P39669) (enzyme),stoichiometry N,[14],4
Agrobacterium tumefaciens ADP-glucose pyrophosphorylase mutant D141N (from UniProt P39669) (enzyme),stoichiometry N,[15],4
Agrobacterium tumefaciens ADP-glucose pyrophosphorylase mutant D141R (from UniProt P39669) (enzyme),stoichiometry N,[16],2
Agrobacterium tumefaciens ADP-glucose pyrophosphorylase mutant R11D (from UniProt P39669) (enzyme),stoichiometry N,[17],4
Agrobacterium tumefaciens ADP-glucose pyrophosphorylase mutant R11K (from UniProt P39669) (enzyme),stoichiometry N,[18],4
"Agrobacterium tumefaciens ADP-glucose pyrophosphorylase wild type (enzyme, ADP-glucose pyrophosphorylase (EC 2.7.7.27) of Agrobacterium tumefaciens, ~50 kDa subunit, encoded by plasmid pBHL1 (pET28c derivative) of Hill et al., 2019; also called ADP-Glc PPase; WT; source: E. coli BL21 (DE3), purified (His-Trap FF Ni2+ column, Superdex 200 gel filtration)) MSEKRVQPLARDAMAYVLAGGRGSRLKELTDRRAKPAVYFGGKARIIDFALSNALNSGIRRIGVATQYKAHSLIRHLQRGWDFFRPERNESFDILPASQRVSETQWYEGTADAVYQNIDIIEPYAPEYMVILAGDHIYKMDYEYMLQQHVDSGADVTIGCLEVPRMEATGFGVMHVNEKDEIIDFIEKPADPPGIPGNEGFALASMGIYVFHTKFLMEAVRRDAADPTSSRDFGKDIIPYIVEHGKAVAHRFADSCVRSDFEHEPYWRDVGTIDAYWQANIDLTDVVPDLDIYDKSWPIWTYAEITPPAKFVHDDEDRRGSAVSSVVSGDCIISGAALNRSLLFTGVRANSYSRLENAVVLPSVKIGRHAQLSNVVIDHGVVIPEGLIVGEDPELDAKRFRRTESGICLITQSMIDKLDL",stoichiometry N,[19],4
